We go through seven molecules from US20060025589A1, “2-Thiohydantoine derivative compounds and use thereof for the treatment of diabetes” (priority 2002, published 2006).

This assay concerns male C57BL/KsJ-db/db mice. As to the kind of experiment: in vivo reduction of serum glucose and triglyceride levels in diabetic db/db mice. The note with it: gavage, suspended in 3% gum arabic, twice daily for 10 days plus morning of day 11, doses below 200 mg/kg, generally 10 mg/kg, blood taken 4 h after last administration. As to the method:
The compounds of formula (I) according to the invention were subjected to pharmacological tests in order to evaluate their potential to reduce the blood glycemia level.
The in vivo studies were carried out on male C57BL/KsJ-db/db mice originating from CERJ (Route des Chênes Secs—BP 5—53940 Le Genest St Isle—France).
The animals are accommodated in cages fitted with a filter lid and have free access to an irradiated standard food and to filtered drinking water. All the equipment used (cages, feeding bottles, pipettes and shavings) is sterilized by autoclaving, irradiation or immersion in a disinfectant. The temperature of the room is maintained at 23±2° C. The light-dark cycle is 12 h.
During the acclimatization period, each animal is tagged with an electronic chip, which is implanted under anesthesia effected by the inhalation of a CO2/O2 mixture.
Groups of 8 to 10 mice are formed and the treatments start when the animals are 9 to 11 weeks old. The products are suspended in gum arabic at a concentration of 3% and administered to the animals by means of a gavage cannula for 10 days at a rate of two administrations per day, as well as on the morning of day 11. The products are tested at doses below 200 mg/kg and generally of 10 mg/kg. The animals in the control group receive the dosage vehicle only.
A blood sample is taken before treatment and then four hours after the last administration of the product. The animals are anesthetized by the inhalation of a CO2/O2 mixture and the blood is taken from the retro-orbital sinus, collected in a dry tube and kept cold. The serum is separated off by centrifugation at 2800 g (15 minutes, 4° C.) during the hour following sampling. The samples are kept at −20° C. until they are analyzed.
The serum glucose and triglyceride levels are determined on a Konélab 30 analyzer by means of Konélab kits. The animals whose glycemia before treatment was below 3 g/l are systematically excluded from the study.
For each group, the mean glucose and triglyceride levels after treatment are calculated and the results are expressed as the percentage variation of these means relative to the control group after verification of the homogeneity of the means before treatment.
Take `COc1ccc(N2C(=O)C(C)N(c3ccc(Cc4ccccc4)cc3)C2=S)cc1` (centres unmarked) [Example 200, 3-(4-Methoxyphenyl)-5-methyl-1-[4-(phenylmethyl)phenyl]-2-thioxoimidazolidin-4-one]: the “Gly (decrease in the glycemia level; percentage variation of mean serum glucose relative to the control group)” value is given as −63% and the “TG (decrease in the triglyceride level; percentage variation of mean serum triglycerides relative to the control group)” value is −58%.

Take `CC1C(=O)N(c2ccc(Cc3ccccc3)cc2)C(=S)N1c1ccccc1` (centres unmarked) [Example 185, 5-Methyl-1-phenyl-3-[4-(phenylmethyl)phenyl]-2-thioxoimidazolidin-4-one]: the “Gly (decrease in the glycemia level; percentage variation of mean serum glucose relative to the control group)” value is given as −57% and the “TG (decrease in the triglyceride level; percentage variation of mean serum triglycerides relative to the control group)” value is −39%.

Regarding `C=CCN1CC(=O)N(c2ccc(Cc3ccccc3)cc2)C1=S` [Example 190, 3-[4-(Phenylmethyl)phenyl]-1-(2-propenyl)-2-thioxoimidazolidin-4-one], the “Gly (decrease in the glycemia level; percentage variation of mean serum glucose relative to the control group)” value was −58% and the “TG (decrease in the triglyceride level; percentage variation of mean serum triglycerides relative to the control group)” value is −53%.

As for `CC1C(=O)N(c2cccc(F)c2)C(=S)N1c1ccc(Oc2ccccc2)cc1` (centres unmarked) [Example 20, 3-(3-Fluorophenyl)-5-methyl-1-(4-phenoxyphenyl)-2-thioxoimidazolidin-4-one], the “Gly (decrease in the glycemia level; percentage variation of mean serum glucose relative to the control group)” value is −47% and the “TG (decrease in the triglyceride level; percentage variation of mean serum triglycerides relative to the control group)” value was −47%.

Regarding `COc1ccc(N2C(=O)CN(c3ccc(Cc4ccccc4)cc3)C2=S)cc1` [Example 195, 3-(4-Methoxyphenyl)-1-[4-(phenylmethyl)phenyl]-2-thioxoimidazolidin-4-one], the “Gly (decrease in the glycemia level; percentage variation of mean serum glucose relative to the control group)” value is listed as −53% and the “TG (decrease in the triglyceride level; percentage variation of mean serum triglycerides relative to the control group)” value is listed as −46%.

Regarding `COc1ccc(N2C(=O)C(C)N(c3ccc(OCc4ccccc4)cc3)C2=S)cc1` (centres unmarked) [Example 139], the “Gly (decrease in the glycemia level; percentage variation of mean serum glucose relative to the control group)” value is on record as −36% and the “TG (decrease in the triglyceride level; percentage variation of mean serum triglycerides relative to the control group)” value is listed as −32%.

`COc1ccc(N2C(=O)C(C)(C)N(c3ccc(Oc4ccccc4)cc3)C2=S)cc1` [Example 30, 5,5-Dimethyl-3-(4-methoxyphenyl)-1-(4-phenoxyphenyl)-2-thioxoimidazolidin-4-one]: the “Gly (decrease in the glycemia level; percentage variation of mean serum glucose relative to the control group)” value is listed as −54% and the “TG (decrease in the triglyceride level; percentage variation of mean serum triglycerides relative to the control group)” value is −53%.
